Patent US6476046B1, “Diazabicyclo[4.3.0]nonanes, and methods of use thereof” (Sepracor, Inc., priority 2000, dated 2002)
Read-outs that look alike come from different tables or passages of the source.

How the values were obtained:
human opiate receptor κ = human opiate receptor κ (Homo sapiens, UniProt P41145); assay: Radioligand binding assay, human opiate receptor κ
Method: (§1) Radioligand Binding Assays (IC50, μM)
(§2) The radiobinding assays for human opiate receptor μ, κ and δ are conducted according the procedures outlined by Maguire et al. (Eur. Pharmacol. 1992, 213, 219).

human opiate receptor μ = human opiate receptor μ (Homo sapiens, UniProt P35372); assay: Radioligand binding assay, human opiate receptor μ
Sequence of human opiate receptor μ (P35372 whole entry): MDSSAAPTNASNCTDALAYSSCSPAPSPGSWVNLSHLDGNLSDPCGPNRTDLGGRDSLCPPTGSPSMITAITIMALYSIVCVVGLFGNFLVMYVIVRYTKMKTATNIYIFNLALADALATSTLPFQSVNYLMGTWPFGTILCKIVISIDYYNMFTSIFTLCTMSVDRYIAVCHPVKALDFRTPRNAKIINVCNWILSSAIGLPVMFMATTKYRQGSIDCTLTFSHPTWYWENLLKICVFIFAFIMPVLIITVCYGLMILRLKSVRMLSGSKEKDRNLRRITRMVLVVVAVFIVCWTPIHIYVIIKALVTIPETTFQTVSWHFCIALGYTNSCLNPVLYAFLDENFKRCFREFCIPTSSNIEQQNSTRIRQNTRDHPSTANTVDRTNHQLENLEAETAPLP
Text: Another assay useful in the present invention concerns determining the ability of a ligand to bind to a biological receptor utilizing a technique well known in the art referred to as a radioligand binding assay. This assay accurately determines the specific binding of a radioligand to a targeted receptor through the delineation of its total and nonspecific binding components. Total binding is defined as the amount of radioligand that remains following the rapid separation of the radioligand bound in a receptor preparation (cell homogenates or recombinate receptors) from that which is unbound. The nonspecific binding component is defined as the amount of radioligand that remains following separation of the reaction mixture consisting of receptor, radioligand and an excess of unlabeled ligand. Under this condition, the only radioligand that remains represents that which is bound to components other that receptor. The specific radioligand bound is determined by subtracting the nonspecific from total radioactivity bound. For a specific example of radioligand binding assay for μ-opioid receptor, see Wang, J. B. et al. FEBS Letters 1994, 338, 217.
as §1, §2

[1] = In vivo analgesia, tail flick model; details: Rattus norvegicus
Method: (§3) Various experimental procedures, well known in the art, are useful in the present invention to assess the analgesic effect of compounds, such as the “tail flick” and “hot plate” tests. The “tail flick” test can be performed by applying a noxious thermal stimulus to the rat's tail and determining the time until the nociceptive tail flick occurs.
(§4) In vivo Analgesia Experiments
The tail flick model was conducted according to D'Amour F. E. and Smith D. L. J. Pharmacol. Exp. Ther. 1941, 72, 74.

[2] = In vivo analgesia, hot plate test; details: Rattus norvegicus
Text: as §3, §4

human opiate receptor δ = human opiate receptor δ (Homo sapiens, UniProt P41143); assay: Radioligand binding assay, human opiate receptor δ
Sequence of human opiate receptor δ (P41143 whole entry): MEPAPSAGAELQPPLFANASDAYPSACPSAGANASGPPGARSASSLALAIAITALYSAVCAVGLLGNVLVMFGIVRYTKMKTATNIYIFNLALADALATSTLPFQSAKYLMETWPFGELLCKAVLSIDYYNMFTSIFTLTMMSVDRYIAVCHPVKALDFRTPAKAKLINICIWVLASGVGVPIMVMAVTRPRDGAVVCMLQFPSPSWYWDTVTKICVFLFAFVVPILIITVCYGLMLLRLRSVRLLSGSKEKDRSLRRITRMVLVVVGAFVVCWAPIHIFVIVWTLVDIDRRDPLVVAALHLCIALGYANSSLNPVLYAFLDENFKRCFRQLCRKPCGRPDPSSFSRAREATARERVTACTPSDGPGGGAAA
Method: as §1, §2

[3] = radioligand binding, human opiate receptor κ, read-out: κ (IC50)
[4] = radioligand binding, human opiate receptor μ, read-out: μ (IC50)
[5] = radioligand binding, human opiate receptor δ, read-out: δ (IC50)

Sequence of human opiate receptor κ (P41145 whole entry): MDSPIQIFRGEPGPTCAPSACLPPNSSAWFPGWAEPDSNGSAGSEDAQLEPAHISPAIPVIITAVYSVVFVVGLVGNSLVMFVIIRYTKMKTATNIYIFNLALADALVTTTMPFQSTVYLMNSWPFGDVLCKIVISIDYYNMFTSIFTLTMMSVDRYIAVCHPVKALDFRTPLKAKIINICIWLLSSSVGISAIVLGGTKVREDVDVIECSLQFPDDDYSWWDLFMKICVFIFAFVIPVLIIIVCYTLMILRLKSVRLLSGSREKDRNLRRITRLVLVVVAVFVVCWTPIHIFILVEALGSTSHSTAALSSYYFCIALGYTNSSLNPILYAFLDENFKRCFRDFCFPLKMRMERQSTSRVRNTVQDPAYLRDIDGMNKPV

## CCC(=O)N(C[C@@]12CN(CCc3ccccc3)CCC1CN(CCc1ccccc1)C2)c1ccccc1 (single isomer, unassigned) [Compound 37]
Human opiate receptor κ; [3]
  IC50: < 1 µM
Human opiate receptor μ; [4]
  IC50: < 10 nM
[1]
  ED50: 0.05 mg/kg
[2]
  ED50: 0.06 mg/kg
Human opiate receptor δ; [5]
  IC50: < 1000 nM

## C[C@@H](N(C(=O)C1CCC1)c1ccccc1)C12CN(CCc3ccccc3)CCC1CN(Cc1ccccc1)C2 (some centres unmarked) [Compound 33]
Human opiate receptor κ
  IC50: < 5 µM
Human opiate receptor μ
  IC50: < 1000 nM
Human opiate receptor δ
  IC50: < 5000 nM

## C[C@H](N(C(=O)C1CCC1)c1ccccc1)C12CN(CCc3ccccc3)CCC1CN(Cc1ccccc1)C2 (some centres unmarked) [Compound 32]
Human opiate receptor κ
  IC50: < 5 µM
Human opiate receptor μ
  IC50: < 100 nM
Human opiate receptor δ
  IC50: < 1000 nM

## CCC(=O)N(CC12CN(CCc3ccccc3)CCC1CN(CCc1ccccc1)C2)c1ccccc1 (centres unmarked) [Compound 36]
Human opiate receptor κ
  IC50: < 5 µM
Human opiate receptor μ
  IC50: < 10 nM
Human opiate receptor δ
  IC50: < 1000 nM

## CCC(=O)N(C[C@]12CN(CCc3ccccc3)CCC1CN(CCc1ccccc1)C2)c1ccccc1 (single isomer, unassigned) [Compound 38]
Human opiate receptor κ; [3]
  IC50: < 5 µM
Human opiate receptor μ; [4]
  IC50: < 100 nM
[1]
  ED50: 0.18 mg/kg
[2]
  ED50: 152 mg/kg
Human opiate receptor δ; [5]
  IC50: < 1000 nM

## COc1cccc(C(O)C23CN(CCc4ccccc4)CCC2CN(Cc2ccccc2)C3)c1 (centres unmarked) [Compound 14]
Human opiate receptor μ; [4]
  IC50: < 1000 nM

## CCC(=O)N(CC12CN(C)CC1CCN(CCc1ccccc1)C2)c1ccccc1 (centres unmarked) [Compound 42]
Human opiate receptor μ; [4]
  IC50: < 1000 nM

## CS(=O)(=O)N(CC12CN(CCc3ccccc3)CCC1CN(Cc1ccccc1)C2)c1ccccc1 (centres unmarked) [Compound 25]
Human opiate receptor κ; [3]
  IC50: < 10 µM
Human opiate receptor μ; [4]
  IC50: < 1000 nM

## CCC(=O)N(CC12CN(CCc3ccccc3)CCC1CN(Cc1ccccc1)C2)c1ccccc1 (centres unmarked) [Compound 23]
Human opiate receptor κ; [3]
  IC50: < 5 µM
Human opiate receptor μ; [4]
  IC50: < 100 nM
Human opiate receptor δ; [5]
  IC50: < 1000 nM

## O[C@@H](c1ccccc1)C12CN(CCc3ccccc3)CCC1CN(Cc1ccccc1)C2 (some centres unmarked) [Compound 11]
Human opiate receptor κ; [3]
  IC50: < 5 µM
Human opiate receptor μ; [4]
  IC50: < 1000 nM

## O[C@H](c1ccccc1)C12CN(CCc3ccccc3)CCC1CN(Cc1ccccc1)C2 (some centres unmarked) [Compound 12]
Human opiate receptor κ; [3]
  IC50: < 5 µM
Human opiate receptor μ; [4]
  IC50: < 1000 nM

## CCC(=O)N(c1ccccc1)C(C)C12CN(CCc3ccccc3)CCC1CN(Cc1ccccc1)C2 (centres unmarked) [Compound 31]
Human opiate receptor κ
  IC50: < 5 µM
Human opiate receptor μ
  IC50: < 10 nM
Human opiate receptor δ
  IC50: < 1000 nM

## CCC(=O)N(CC12CN(CCc3ccccc3)CCC1CN(S(C)(=O)=O)C2)c1ccccc1 (centres unmarked) [Compound 41]
Human opiate receptor μ; [4]
  IC50: < 1000 nM

## CCC(=O)N(CC12CN(CCc3ccccc3)CCC1CN(C(C)=O)C2)c1ccccc1 (centres unmarked) [Compound 40]
Human opiate receptor μ; [4]
  IC50: < 1000 nM
